Experimental data from ChEMBL document CHEMBL2177008, “Discovery of benzodiazepine sulfonamide-based bombesin receptor subtype 3 agonists and their unusual chirality” (ACS Med Chem Lett, 2011).
Calls of active or inactive are those of the source. No cut-off for these calls is given here.

Columns and labels:
[1] = target: T1, Bombesin receptor subtype-3 (Mus musculus, UniProt O54798); assay: Agonist activity at mouse BRS3 expressed in HEK293 cells expressing aequorin measured for 30 secs by bioluminescence assay; format: functional, cell-based
T1 sequence (O54798 whole entry): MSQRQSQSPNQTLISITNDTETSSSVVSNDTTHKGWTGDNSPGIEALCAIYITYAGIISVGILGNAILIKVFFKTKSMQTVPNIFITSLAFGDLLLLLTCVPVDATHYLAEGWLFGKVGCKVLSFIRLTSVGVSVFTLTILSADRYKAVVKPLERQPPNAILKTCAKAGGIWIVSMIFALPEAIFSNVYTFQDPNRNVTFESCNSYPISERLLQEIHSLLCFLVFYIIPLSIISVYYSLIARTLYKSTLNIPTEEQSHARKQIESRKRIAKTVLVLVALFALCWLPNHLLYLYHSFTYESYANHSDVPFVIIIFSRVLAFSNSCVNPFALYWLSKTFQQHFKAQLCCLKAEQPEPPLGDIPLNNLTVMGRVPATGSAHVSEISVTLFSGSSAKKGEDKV

[2] = target: T2, Bombesin receptor subtype-3 (Mus musculus) (UniProt O54798); assay: Agonist activity at mouse BRS3 expressed in HEK293 cells expressing aequorin measured for 30 secs by bioluminescence assay relative to [125I]-[D-Tyr6,beta-Ala11,Phe13,Nle14]-Bombesin(6-14); format: functional, cell-based
T2 sequence (whole entry): T1 sequence (O54798 whole entry)

[3] = Oral bioavailability in Sprague-Dawley rat at 4 mg/kg; format: ADME, organism-based; settings: in vivo
[4] = Plasma clearance in Sprague-Dawley rat at 1 mg/kg, iv; format: ADME, organism-based; design: dose 1 mg/kg, route intravenous
[5] = target: T3, Bombesin receptor subtype-3 (Homo sapiens, UniProt P32247); assay: Displacement of [125I]-[D-Tyr6,beta-Ala11,Phe13,Nle14]-Bombesin(6-14) from human BRS3 expressed in CHO cells expressing NFAT after 2 hrs by liquid scintillation counting; format: cell-based
T3 sequence (P32247 whole entry): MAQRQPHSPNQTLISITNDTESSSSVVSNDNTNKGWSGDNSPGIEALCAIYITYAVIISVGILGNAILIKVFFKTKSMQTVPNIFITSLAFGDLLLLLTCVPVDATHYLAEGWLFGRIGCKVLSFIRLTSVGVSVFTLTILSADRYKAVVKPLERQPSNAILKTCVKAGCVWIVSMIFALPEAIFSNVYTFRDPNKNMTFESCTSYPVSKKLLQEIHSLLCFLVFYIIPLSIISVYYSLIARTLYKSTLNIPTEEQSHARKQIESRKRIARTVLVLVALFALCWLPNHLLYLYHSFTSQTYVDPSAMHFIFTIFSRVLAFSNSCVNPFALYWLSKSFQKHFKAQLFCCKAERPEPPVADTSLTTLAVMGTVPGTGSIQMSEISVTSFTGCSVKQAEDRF

[6] = target: T3, Bombesin receptor subtype-3; assay: Agonist activity at human BRS3 expressed in HEK293 cells expressing aequorin measured for 30 secs by bioluminescence assay; format: functional, cell-based
Rattus norvegicus = assay: Dose normalized AUC in Sprague-Dawley rat at 4 mg/kg, po; format: ADME, organism-based; design: dose 4 mg/kg, route oral; settings: in vivo
[7] = Half life in Sprague-Dawley rat at 1 mg/kg, iv; format: ADME, organism-based; design: dose 1 mg/kg, route intravenous; settings: in vivo
Mus musculus [8] = assay: Antiobesity activity in diet-induced obese wild type C57 mouse assessed as weight loss at 3 mg/kg, po administered QD 60 mins prior to dark cycle onset relative to control; format: functional
[9] = Agonist activity at dog BRS3; format: functional, Canis lupus familiaris
[10] = Half life in rhesus monkey; format: ADME, organism-based, Macaca mulatta; settings: in vivo
Mus musculus [11] = assay: Antiobesity activity in po dosed diet-induced obese wild type C57 mouse assessed as body weight loss administered 60 mins prior to dark cycle onset measured after 18 hrs; format: functional, organism-based
PXR = target: T4, PXR (Homo sapiens, UniProt O75469); assay: Activation of human PXR at 10 uM relative to control; settings: read-out: Activity
T4 sequence (O75469 whole entry): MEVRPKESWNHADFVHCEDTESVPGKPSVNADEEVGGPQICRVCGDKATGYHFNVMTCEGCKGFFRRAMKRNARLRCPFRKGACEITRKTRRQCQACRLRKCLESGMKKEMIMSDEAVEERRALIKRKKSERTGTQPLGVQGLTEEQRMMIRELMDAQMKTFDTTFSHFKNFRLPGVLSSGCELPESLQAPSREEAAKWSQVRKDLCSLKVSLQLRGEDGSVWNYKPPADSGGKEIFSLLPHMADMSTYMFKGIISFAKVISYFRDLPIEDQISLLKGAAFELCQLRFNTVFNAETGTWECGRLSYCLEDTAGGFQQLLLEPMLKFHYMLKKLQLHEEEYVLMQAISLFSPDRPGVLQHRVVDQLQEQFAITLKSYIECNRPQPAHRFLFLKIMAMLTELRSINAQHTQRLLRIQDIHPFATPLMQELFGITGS

Mus musculus [12] = assay: Antiobesity activity in diet-induced obese […] knock-out C57 mouse assessed as reduction in food intake at 3 and 30 mg/kg, po administered 60 mins prior to dark cycle onset measured after 18 hrs; format: functional, organism-based; design: dose 30 mg/kg
Mus musculus [13] = assay: Antiobesity activity in po dosed diet-induced obese wild type C57 mouse assessed as reduction in food intake administered 60 mins prior to dark cycle onset measured after 18 hrs; format: functional, organism-based
[14] = Inhibition of calcium channel Diltiazem hydrochloride binding site
[15] = target: T5, Nuclear receptor subfamily 1 group I member 2 (Homo sapiens, UniProt O75469); assay: Activation of human PXR
T5 sequence (O75469 whole entry): T4 sequence (O75469 whole entry)

[16] = target: T3, Bombesin receptor subtype-3; assay: Agonist activity at human BRS3 expressed in HEK293 cells expressing aequorin measured for 10 mins by bioluminescence assay
[17] = target: Voltage-gated inwardly rectifying potassium channel KCNH2 (Homo sapiens, UniProt Q12809); assay: Inhibition of human ERG
Canis lupus familiaris = species: Canis lupus familiaris; assay: Agonist activity at dog BRS3 relative to [125I]-[D-Tyr6,beta-Ala11,Phe13,Nle14]-Bombesin(6-14); format: functional
[18] = Agonist activity at rhesus monkey BRS3; format: functional, Macaca mulatta
[19] = Displacement of [125I]-[D-Tyr6,beta-Ala11,Phe13,Nle14]-Bombesin(6-14) from rhesus monkey BRS3; design: species or system Macaca mulatta
[20] = Oral bioavailability in rhesus monkey; format: ADME, organism-based, Macaca mulatta; settings: in vivo
Macaca mulatta = species: Macaca mulatta; assay: Agonist activity at rhesus monkey BRS3 relative to [125I]-[D-Tyr6,beta-Ala11,Phe13,Nle14]-Bombesin(6-14); format: functional
[21] = Displacement of [125I]-[D-Tyr6,beta-Ala11,Phe13,Nle14]-Bombesin(6-14) from dog BRS3; design: species or system Canis lupus familiaris

Voltage-gated inwardly rectifying potassium channel KCNH2, sequence (Q12809 whole entry): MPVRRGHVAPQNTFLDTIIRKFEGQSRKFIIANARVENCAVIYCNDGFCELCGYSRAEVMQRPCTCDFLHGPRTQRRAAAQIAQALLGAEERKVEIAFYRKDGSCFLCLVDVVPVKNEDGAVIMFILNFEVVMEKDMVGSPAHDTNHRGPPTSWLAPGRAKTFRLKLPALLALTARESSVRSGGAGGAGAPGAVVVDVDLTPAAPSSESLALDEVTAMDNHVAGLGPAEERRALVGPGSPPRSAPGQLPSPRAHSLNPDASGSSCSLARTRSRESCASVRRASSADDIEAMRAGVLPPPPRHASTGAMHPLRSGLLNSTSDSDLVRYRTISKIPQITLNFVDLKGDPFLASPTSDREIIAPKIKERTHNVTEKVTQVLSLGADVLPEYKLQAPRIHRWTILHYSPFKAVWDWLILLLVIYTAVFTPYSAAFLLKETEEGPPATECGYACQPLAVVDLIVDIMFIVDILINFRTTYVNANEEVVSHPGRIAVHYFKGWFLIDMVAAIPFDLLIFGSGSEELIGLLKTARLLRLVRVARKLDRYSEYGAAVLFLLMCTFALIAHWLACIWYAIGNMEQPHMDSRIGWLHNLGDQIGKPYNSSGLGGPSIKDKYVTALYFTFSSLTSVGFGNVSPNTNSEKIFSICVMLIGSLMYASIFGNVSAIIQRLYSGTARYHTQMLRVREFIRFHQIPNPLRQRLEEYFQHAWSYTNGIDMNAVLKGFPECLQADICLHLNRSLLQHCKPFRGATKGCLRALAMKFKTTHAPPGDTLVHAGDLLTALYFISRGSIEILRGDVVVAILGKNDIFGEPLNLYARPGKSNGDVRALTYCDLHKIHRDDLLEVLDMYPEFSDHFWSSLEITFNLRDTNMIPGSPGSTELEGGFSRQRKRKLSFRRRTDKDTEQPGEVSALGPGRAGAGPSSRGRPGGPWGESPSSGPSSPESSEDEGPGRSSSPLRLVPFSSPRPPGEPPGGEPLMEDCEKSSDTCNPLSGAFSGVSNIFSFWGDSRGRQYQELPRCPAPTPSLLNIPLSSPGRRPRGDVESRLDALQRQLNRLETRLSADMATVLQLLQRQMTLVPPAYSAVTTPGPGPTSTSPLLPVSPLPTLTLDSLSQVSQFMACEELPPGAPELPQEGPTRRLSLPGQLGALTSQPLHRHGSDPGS

Structure (SMILES) | EC50 [1] [nM] | max activation [2] [%] | IC50 [5] [nM] | EC50 [6] [nM] | other results
Cc1ccc2c(c1C)N(S(=O)(=O)c1csc(C(F)(F)F)c1)Cc1ccc(C(F)(F)F)nc1N2 | 96 | 103 | 14 | 123 | –
Cc1c(C(=O)NN2CCCCC2)nn(-c2ccc(Cl)cc2Cl)c1-c1ccc(I)cc1 | – | – | – | – | Activity (Mus musculus [8]): 6.2%
CC(C)(C)c1ccc(S(=O)(=O)N2Cc3ccc(C(F)(F)F)nc3Nc3cccc(Cl)c32)cc1 | 155 | 100 | 3.2 | 63 | bioavailability [3]: 34%; clearance [4]: 46 mL/min/kg; AUC/dose (Rattus norvegicus): 0.26 µM·kg·h/mg; half-life [7]: 1.4 h
Cc1ccc2c(c1C)N(S(=O)(=O)c1ccc(C(C)(C)C)cc1)Cc1ccc(C(F)(F)F)nc1N2 | – | 98 | – | – | EC50 [9]: 36 nM; half-life [10]: 1.8 h; Activity (Mus musculus [11]): Dose-dependent effect; activity at 10 µM (PXR): 42%; bioavailability [3]: 15%; clearance [4]: 29 mL/min/kg; Activity (Mus musculus [12]): inactive; Activity (Mus musculus [13]): Dose-dependent effect; IC50 [14]: > 10000 nM; EC50 [15]: 678 nM; EC50 [16]: 15 nM; IC50 [17]: > 10000 nM; max activation (Canis lupus familiaris): 97%; EC50 [18]: 70 nM; IC50 [19]: 3 nM; bioavailability [20]: 17%; AUC/dose (Rattus norvegicus): 0.2 µM·kg·h/mg; max activation (Macaca mulatta): 97%; half-life [7]: 1.6 h; IC50 [21]: 1.6 nM
Cc1ccc2c(c1C)N(S(=O)(=O)c1ccc(C(C)(C)C)cc1)Cc1ccc(C#N)nc1N2 | 50 | 103 | 4.4 | 50 | –
Cc1ccc2c(c1C)N(S(=O)(=O)c1ccc(C(F)(F)F)cc1)Cc1ccc(C(F)(F)F)nc1N2 | 79 | 100 | 6.8 | 154 | –
Cc1ccc2c(c1C)Nc1nc(C(F)(F)F)ccc1CN2S(=O)(=O)c1ccc(C(C)(C)C)cc1 | > 10000 | – | – | > 10000 | –
Cc1ccc2c(c1C)N(S(=O)(=O)c1ccc(C(F)(F)F)s1)Cc1ccc(C(F)(F)F)nc1N2 | 154 | 90 | 10 | 158 | –
Cc1ccc2c(c1C)N(S(=O)(=O)c1ccc(C(C)(C)C)cc1)Cc1ccc(Cl)nc1N2 | 98 | 105 | 1.2 | 38 | –
Cc1ccc2c(c1C)N(S(=O)(=O)c1ccc(C(C)(C)C#N)cc1)Cc1ccc(C(F)(F)F)nc1N2 | 79 | 83 | 5.7 | 60 | –
CC(C)(C)c1ccc(S(=O)(=O)N2Cc3ccc(C(F)(F)F)nc3Nc3ccccc32)cc1 | 161 | 98 | 5.5 | 110 | –
Cc1ccc2c(c1C)N(S(=O)(=O)c1ccc(C(C)(C)C)cc1)Cc1cc(Cl)cnc1N2 | > 10000 | – | 430 | > 10000 | –
Cc1ccc2c(c1)N(S(=O)(=O)c1ccc(C(C)(C)C)cc1)Cc1ccc(C(F)(F)F)nc1N2 | 377 | 82 | 5.8 | 199 | bioavailability [3]: 22%; clearance [4]: 24 mL/min/kg; AUC/dose (Rattus norvegicus): 0.31 µM·kg·h/mg; half-life [7]: 2.2 h
Cc1ccc2c(c1C)N(S(=O)(=O)c1ccc(C(C)C)cc1)Cc1ccc(C(F)(F)F)nc1N2 | 84 | 110 | 1.6 | 49 | bioavailability [3]: 10%; clearance [4]: 16 mL/min/kg; AUC/dose (Rattus norvegicus): 0.24 µM·kg·h/mg; half-life [7]: 3.5 h
CC(C)(C)c1ccc(S(=O)(=O)N2Cc3ccc(C(F)(F)F)nc3Nc3ccc4ncccc4c32)cc1 | 129 | 107 | 0.7 | 108 | –
Cc1ccc2c(n1)N(S(=O)(=O)c1ccc(C(C)(C)C)cc1)Cc1ccc(C(F)(F)F)nc1N2 | 171 | 112 | – | 110 | –

Further molecules by falling EC50 [1], results first:

EC50 [1] [nM] | max activation [2] [%] | IC50 [5] [nM] | EC50 [6] [nM] | Structure (SMILES) | other results
561 | 46 | 73 | 543 | Cc1ccc2c(c1C)N(S(=O)(=O)c1ccc(S(C)(=O)=O)cc1)Cc1ccc(C(F)(F)F)nc1N2 | –
371 | 82 | 8.9 | 277 | Cc1ccc2c(c1C)N(S(=O)(=O)c1ccc(C(C)(C)C)cc1)Cc1cc(F)c(Cl)nc1N2 | –
248 | 101 | 40 | 325 | Cc1ccc2c(c1C)N(S(=O)(=O)c1ccc(C(C)(C)C)cc1)Cc1cccnc1N2 | bioavailability [3]: 1%; clearance [4]: 164 mL/min/kg; AUC/dose (Rattus norvegicus): 0.007 µM·kg·h/mg; half-life [7]: 1.6 h
232 | 107 | 10 | 131 | Cc1ccc2c(n1)Nc1ccc(C)c(C)c1N(S(=O)(=O)c1ccc(C(C)(C)C)cc1)C2 | –
209 | 115 | 2.2 | 88 | CC(C)(C)c1ccc(S(=O)(=O)N2Cc3ccc(C(F)(F)F)nc3Nc3cccc(O)c32)cc1 | –
200 | 108 | 5.7 | 69 | Cc1ccc2c(c1C)N(S(=O)(=O)c1ccc(C(C)(C)F)cc1)Cc1ccc(C(F)(F)F)nc1N2 | –
134 | 97 | 5 | 77 | CC(C)(C)c1ccc(S(=O)(=O)N2Cc3ccc(C(F)(F)F)nc3Nc3ccc(C(C)(C)O)c(F)c32)cc1 | bioavailability [3]: 13%; clearance [4]: 24 mL/min/kg; AUC/dose (Rattus norvegicus): 0.19 µM·kg·h/mg; half-life [7]: 3 h
120 | 106 | 0.9 | 50 | Cc1cccc2c1N(S(=O)(=O)c1ccc(C(C)(C)C)cc1)Cc1ccc(C(F)(F)F)nc1N2 | bioavailability [3]: 14%; clearance [4]: 38 mL/min/kg; AUC/dose (Rattus norvegicus): 0.13 µM·kg·h/mg; half-life [7]: 1.6 h
80 | 103 | 3.3 | 43 | Cc1ccc2c(c1C)N(S(=O)(=O)c1ccc(OC(F)(F)F)cc1)Cc1ccc(C(F)(F)F)nc1N2 | –
